Values quoted from earlier work as cited in patent US20220249381A1, “COMPRESSED MACITENTAN COMPOSITIONS, METHODS AND USES THEREOF” (TECNIMEDE - SOCIEDADE TÉCNICO-MEDICINAL, SA, priority 2019, published 2022).

solubility (BCS characterisation): low solubility
solubility in organic solvents (methanol and ethanol): only slightly soluble
solubility in aqueous solutions (room temperature, pH 1.2, 4, 6.8, 7, 9): insoluble
SMILES: CCCNS(=O)(=O)Nc1ncnc(OCCOc2ncc(Br)cn2)c1-c1ccc(Br)cc1 [Macitentan, N-[5-(4-Bromophenyl)-6-[2-[(5-bromo-2-pyrimidinyl)oxy]ethoxy]-4-pyrimidinyl]-N′propylsulfamide]
